Test results from patent publication US7892312B2, “Nitrification inhibitor and soil improver and fertilizer containing the same” (priority 2005, dated 2011).

System: Nitrosomonas europaea IF014298
Experiment: in-vitro nitrification bacteria biological luminescence test
Assay type: cell-based
Method: Observation was conducted using in-vitro nitrification bacteria. Explanation is first made of preparation of suspension of the nitrification bacteria used for observation.
The nitrification bacteria (Nitrosomonas europaea IF014298. See Non-Patent Reference 4.) with a bacteria-origin luciferase gene (luxAB) introduced therein was aerobically cultivated in P culture media containing 25 mg/1000 cm^3 of kanamycin at 30° C. for 7-9 days, and after washing, suspended in fresh P culture media, thereby nitrification bacteria suspension was prepared. This nitrification bacteria suspension was kept in the dark place for 30 minutes or longer before experiment.
The composition of P culture media consists of 2.5 g of (NH4)2SO4, 0.7 g of KH2PO4, 13.5 g of Na2HPO4, 0.5 g of NaHCO3, 100 mg of MgSO4-7H2O, 5 mg of CaCl2-2H2O, 1 mg of Fe-EDTA, and 1000 cm^3 of water, and its pH was 8.0.
Nitrification function was evaluated by, after mixing in-vitro the aqueous solution of nitrification bacteria suspension consisting of 0.25 cm^3 of said nitrification bacteria suspension and 0.2 cm^3 of water and 0.01 cm^3 of the sample solution of each Example and Comparative Example, measuring biological luminescence accompanying nitrification reaction during cultivation at 15° C. for 30 minutes using a luminometer (Turner Designs, TD20/20). […] Therefore, the luminescence of the case where a sample solution of each Example and Comparative Example is added to the aqueous solution of nitrification bacteria suspension divided by the luminescence of the case of aqueous bacteria suspension without addition of a sample solution of each Example and Comparative Example was defined as nitrification-inhibitory ratio.
The concentration of sample solutions of each Example and Comparative Example in this case was 20 ppm.
Measurement was conducted as mentioned above with the concentration of sample solutions of each Example and Comparative Example in the aqueous nitrification bacteria suspension varying 0-20 ppm.

[1] = sample concentration 20 ppm, 15° C., 30 minutes

Row | SMILES | inhibition of nitrification reaction (in words) (sample concentration 20 ppm) | 80% inhibition concentration (concentration at which nitrification-inhibitory ratio was 80%) | nitrification-inhibitory ratio (sample concentration 8 ppm) | nitrification-inhibitory ratio (sample concentration 12 ppm) | nitrification-inhibitory ratio (sample concentration 16 ppm) | nitrification-inhibitory ratio [1]
1 | CCCCC/C=C\C/C=C\C/C=C\C/C=C\CCCC(=O)O [arachidonic acid, reference compound] | not inhibited |  |  |  |  | 
2 | N#CN=C(N)N [dicyandiamide, reference compound] |  | 185 ppm |  |  |  | 
3 | CCCCC/C=C\C/C=C\CCCCCCCC(=O)OCC [ethyl linoleate, reference compound] | not inhibited |  |  |  |  | 
4 | CCCCC/C=C\C/C=C\CCCCCCCC(=O)O [linoleic acid] |  | about 16 ppm | 40% | 65% | 90% | 95%
5 | CCCCC/C=C\C/C=C\CCCCCCCC(=O)OC [methyl linoleate] |  | ~8 ppm | 80% | 90% | 92% | 95%
6 | CCCCCCCC/C=C\CCCCCCCC(=O)OC [methyl oleate, reference compound] | not inhibited |  |  |  |  | 
7 | CC/C=C\C/C=C\C/C=C\CCCCCCCC(=O)OC [methyl α-linolenate, reference compound] | not inhibited |  |  |  |  | 
8 | Clc1cccc(C(Cl)(Cl)Cl)n1 [nitrapyrin, 2-chloro-6-Trichloromethylpyridine, reference compound] |  | 4 ppm |  |  |  | 
9 | CCCCCCCC/C=C\CCCCCCCC(=O)O [oleic acid, reference compound] | not inhibited |  |  |  |  | 
10 | CCCCCCCCCCCCCCCCCC(=O)O [stearic acid, reference compound] | not inhibited |  |  |  |  | 
11 | CC/C=C\C/C=C\C/C=C\CCCCCCCC(=O)O [α-linolenic acid] |  | ~12 ppm | 40% | 80% | 90% | 95%
12 | CCCCC/C=C\C/C=C\C/C=C\CCCCC(=O)O [γ-linolenic acid] |  | about 16 ppm | 30% | 72% | 90% | 95%
